In patent US20230393140A1, “BINDING ASSAYS INVOLVING A PLURALITY OF SYNTHETIC COMPOUNDS, TARGETS, AND COUNTER TARGETS” (SRI International, priority 2020, published 2023):
Like-named read-outs stand apart in the source and are kept apart here. Numbered stars: 1 amine (or outer) side, 2 acyl side, 3 side chain; on linkers, the order of the positions; unused ones are H or OH. Square brackets hold non-standard residues; d marks the D form. Peptide text beside a SMILES is read from it. * marks the point of attachment. 5FAM = O=C1OC2(c3ccc(O)cc3Oc3cc(O)ccc32)c2ccc(C(=O)*)cc21; NHCH2C6H4(4-CH2CONH2) = NC(=O)Cc1ccc(CN*)cc1; X1 = O=C(Cc1ccc(CN[*:1])cc1)[*:2]

What was measured:
ASGPR = biological target: T1, ASGPR (Homo sapiens, UniProt P07306); assay: MST binding affinity of resynthesized NNP hits to ASGPR; conditions: read-out: KD (nM) [95% conf. int]; MST; NNP1 library hit; target ASGPR; one-site binding model
T1 construct: purchased R&D Systems, Inc. 4394-AS
T1 sequence (P07306 1-291): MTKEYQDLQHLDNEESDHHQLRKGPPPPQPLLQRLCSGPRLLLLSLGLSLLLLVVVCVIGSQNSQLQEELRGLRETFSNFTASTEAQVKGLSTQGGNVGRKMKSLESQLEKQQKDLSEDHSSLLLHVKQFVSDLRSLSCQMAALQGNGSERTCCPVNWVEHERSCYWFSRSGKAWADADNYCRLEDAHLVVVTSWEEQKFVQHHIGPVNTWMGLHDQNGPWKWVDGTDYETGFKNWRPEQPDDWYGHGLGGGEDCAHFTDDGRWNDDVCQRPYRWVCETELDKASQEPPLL
Method: (§1) Hit binding affinity to various targets were determined using Microscale Thermophoresis (MST). MST experiments were performed on a Monolith NT.115pico (NanoTemper Technologies GmbH, Munich, Germany). Measurements were performed at room temperature, in triplicate with incubation periods of 15, 30 and 45 minutes. […] Targets were labeled using Nanotemper Monolith 2nd Generation Protein Labeling Kits. RED-MALEIMIDE (Maleimide-647-dye) labeling kit was used for K-Ras and RED-NHS (NHS-647-dye) labeling kit was used for IL-6, IL-6R, TNFα and ASGPR. The buffer for the ASGPR contained 20 mM HEPES pH 7.4, 150 mM NaCl, 10 mM MgCl2, 2 mM CaCl2, 0.05% Pluronic F-127, and 1 mM DTT; for IL-6 contained 20 mM HEPES pH 7.4, 150 mM KCl, 10 mM MgCl2, and 0.1% Pluronic F-127; for the soluble IL-6 receptor 20 mM HEPES pH 7.4, 150 mM NaCl, 10 mM MgCl2, and 0.05% Tween-20; for K-Ras 20 mM HEPES pH 7.4, 150 mM NaCl, 10 mM MgCl2, 0.05% Tween-20 and 1 mM DTT; for TNFα 10 mM HEPES pH 7.4, 150 mM NaCl, 10 mM MgCl2, 0.05% Polysorbate-20. Triplicate data was analyzed using MO.AffinityAnalysis software (NanoTemper Technologies GmbH).

IL-6 = biological target: T2, IL-6 (Homo sapiens, UniProt P05231); assay: MST binding affinity of resynthesized NNP hits to IL-6
T2 construct: purchased Creative Biomart IL6-12H
Method: as §1

CC(C)C[C@H](NC(=O)[C@@H](CCCNC(=N)N)NC(=O)[C@@H](CCCCN)NC(=O)[C@@H](CCC(=O)O)NC(=O)[C@@H](Cc1ccccc1)NC(=O)Cc1ccc(CNC(=O)[C@H](Cc2ccccc2)NC(=O)[C@@H](CO)NC(=O)[C@@H](CCC(=O)O)NC(=O)[C@H]2CCCN2C(=O)[C@@H](CC(C)C)NC(=O)c2ccc3c(c2)C(=O)OC32c3ccc(O)cc3Oc3cc(O)ccc32)cc1)C(=O)NCc1ccc(CC(=O)N[C@H](Cc2ccc(O)cc2)C(=O)N[C@H](CC(N)=O)C(=O)N[C@H](CCCNC(=N)N)C(=O)N[C@H](Cc2c[nH]cn2)C(=O)N[C@@H](Cc2ccccc2)C(=O)NCc2ccc(CC(=O)N[C@H](Cc3ccc(O)cc3)C(=O)N[C@@H](C(=O)N3CCC[C@@H]3C(=O)N[C@H](CCCNC(=N)N)C(=O)N[C@@H](C)C(=O)NCc3ccc(CC(=O)N[C@H](CCCNC(=N)N)C(=O)N[C@H](Cc4ccccc4)C(=O)N4CCC[C@@H]4C(=O)N[C@@H](C(=O)NCC(=O)NCc4ccc(CC(=O)N[C@H](CC(C)C)C(=O)N5CCC[C@@H]5C(=O)N[C@H](CCCNC(=N)N)C(=O)N[C@@H](C(=O)NCC(=O)NCc5ccc(CC(N)=O)cc5)[C@H](C)O)cc4)C(C)C)cc3)[C@H](C)O)cc2)cc1 [ASGPR-9-12] (5FAM-[dL][dP][dE][dS]F[X1][dF][dE][dK][dR]L[X1][dY][dN][dR][dH]F[X1][dY][dT][dP][dR]A[X1][dR][dF][dP][dV]G[X1][dL][dP][dR][dT]G-{NHCH2C6H4(4-CH2CONH2)})
Kd (ASGPR): 6 nM

CC(C)C[C@H](NC(=O)CNC(=O)[C@@H](Cc1c[nH]cn1)NC(=O)[C@@H](CCCNC(=N)N)NC(=O)[C@H]1CCCN1C(=O)Cc1ccc(CNC(=O)[C@H](Cc2ccccc2)NC(=O)[C@@H](CO)NC(=O)[C@@H](CCCNC(=N)N)NC(=O)[C@H]2CCCN2C(=O)CNC(=O)Cc2ccc(CNC(=O)[C@H](C)NC(=O)[C@@H](CCCNC(=N)N)NC(=O)[C@H]3CCCN3C(=O)[C@H](NC(=O)CNC(=O)Cc3ccc(CNC(=O)[C@H](Cc4ccccc4)NC(=O)[C@@H](CO)NC(=O)[C@@H](CCC(=O)O)NC(=O)[C@H]4CCCN4C(=O)[C@@H](CC(C)C)NC(=O)c4ccc5c(c4)C(=O)OC54c5ccc(O)cc5Oc5cc(O)ccc54)cc3)C(C)C)cc2)cc1)C(=O)NCc1ccc(CC(=O)N[C@H](CCCNC(=N)N)C(=O)N[C@H](Cc2ccccc2)C(=O)N2CCC[C@@H]2C(=O)N[C@@H](C(=O)NCC(=O)NCc2ccc(CC(=O)N[C@H](CC(C)C)C(=O)N3CCC[C@@H]3C(=O)N[C@H](CCCNC(=N)N)C(=O)N[C@@H](C(=O)NCC(=O)NCc3ccc(CC(N)=O)cc3)[C@H](C)O)cc2)C(C)C)cc1 [ASGPR-9-14] (5FAM-[dL][dP][dE][dS]F[X1]G[dV][dP][dR]A[X1]G[dP][dR][dS]F[X1][dP][dR][dH]GL[X1][dR][dF][dP][dV]G[X1][dL][dP][dR][dT]G-{NHCH2C6H4(4-CH2CONH2)})
Kd (ASGPR): 20 nM

CC(C)C[C@H](NC(=O)[C@@H](CCCNC(=N)N)NC(=O)[C@@H](Cc1c[nH]c2ccccc12)NC(=O)Cc1ccc(CNC(=O)[C@H](Cc2ccccc2)NC(=O)[C@@H](CO)NC(=O)[C@@H](CCCNC(=N)N)NC(=O)Cc2ccc(CNC(=O)[C@@H](NC(=O)[C@@H](CO)NC(=O)[C@@H](Cc3ccc(O)cc3)NC(=O)Cc3ccc(CNC(=O)[C@H](CC(C)C)NC(=O)[C@@H](CC(C)C)NC(=O)[C@@H](Cc4ccc(O)cc4)NC(=O)c4ccc5c(c4)C(=O)OC54c5ccc(O)cc5Oc5cc(O)ccc54)cc3)C(C)C)cc2)cc1)C(=O)NCc1ccc(CC(=O)N[C@H](Cc2c[nH]c3ccccc23)C(=O)N[C@H](CCCNC(=N)N)C(=O)N[C@H](C(=O)NCc2ccc(CC(=O)N[C@H](CCCNC(=N)N)C(=O)N[C@H](Cc3ccc(O)cc3)C(=O)N[C@@H](CC(C)C)C(=O)NCc3ccc(CC(=O)N[C@H](CCC(=O)O)C(=O)N[C@H](Cc4ccc(O)cc4)C(=O)N[C@H](C(=O)NCc4ccc(CC(=O)N[C@H](CCCCN)C(=O)N[C@H](Cc5ccccc5)C(=O)N[C@@H](Cc5ccccc5)C(=O)NCc5ccc(CC(=O)N[C@H](Cc6ccc(O)cc6)C(=O)N[C@H](CCCNC(=N)N)C(=O)N[C@@H](Cc6ccccc6)C(=O)NCc6ccc(CC(N)=O)cc6)cc5)cc4)C(C)C)cc3)cc2)C(C)C)cc1 [IL6-65-1] (5FAM-[dY][dL]L[X1][dY][dS]V[X1][dR][dS]F[X1][dW][dR]L[X1][dW][dR]V[X1][dR][dY]L[X1][dE][dY]V[X1][dK][dF]F[X1][dY][dR]F-{NHCH2C6H4(4-CH2CONH2)})
Kd (IL-6; read-out: KD (nM) [95% conf. int], NNP2 library hit, target IL-6, one-site binding model): 500 nM

CC(C)C[C@H](NC(=O)[C@@H](CC(N)=O)NC(=O)[C@@H](CCCCN)NC(=O)Cc1ccc(CNC(=O)[C@H](C)NC(=O)[C@H](NC(=O)[C@@H](Cc2ccccc2)NC(=O)Cc2ccc(CNC(=O)[C@H](Cc3ccccc3)NC(=O)[C@@H](CCCCN)NC(=O)[C@@H](C)NC(=O)Cc3ccc(CNC(=O)[C@H](C)NC(=O)[C@@H](CCCNC(=N)N)NC(=O)[C@@H](Cc4ccccc4)NC(=O)Cc4ccc(CNC(=O)[C@H](C)NC(=O)[C@@H](CCCCN)NC(=O)[C@H]5CCCN5C(=O)Cc5ccc(CNC(=O)[C@H](Cc6ccccc6)NC(=O)[C@@H](C)NC(=O)[C@@H](C)NC(=O)Cc6ccc(CNC(=O)[C@H](Cc7ccccc7)NC(=O)[C@@H](CC(C)C)NC(=O)[C@@H](Cc7c[nH]cn7)NC(=O)c7ccc8c(c7)C(=O)OC87c8ccc(O)cc8Oc8cc(O)ccc87)cc6)cc5)cc4)cc3)cc2)[C@H](C)O)cc1)C(=O)NCc1ccc(CC(=O)N[C@@H](C(=O)N[C@H](Cc2c[nH]cn2)C(=O)N[C@@H](CC(C)C)C(=O)NCc2ccc(CC(=O)N[C@H](Cc3ccccc3)C(=O)N[C@H](CCCCN)C(=O)NCC(=O)NCc3ccc(CC(N)=O)cc3)cc2)[C@H](C)O)cc1 [IL6-65-2, Fluorescein-(D)His-(D)Leu-(L)Phe-PAM-(D)Ala-(D)Ala-(L)Phe-PAM-(D)Pro-(D)Lys-(L)Ala-PAM-(D)Phe-(D)Arg-(L)Ala-PAM-(D)Ala-(D)Lys-(L)Phe-PAM-(D)Phe-(D)Thr-(L)Ala-PAM-(D)Lys-(D)Asn- (L)Leu-PAM-(D)Thr-(D)His-(L)Leu-PAM-(D)Phe-(D)Lys-Gly-PAM] (5FAM-[dH][dL]F[X1][dA][dA]F[X1][dP][dK]A[X1][dF][dR]A[X1][dA][dK]F[X1][dF][dT]A[X1][dK][dN]L[X1][dT][dH]L[X1][dF][dK]G-{NHCH2C6H4(4-CH2CONH2)})
Kd (IL-6; NNP2 library hit, target IL-6, one-site binding model): 400 nM
